Data on four molecules can be found in paper PMC8116058, “De novo macrocyclic peptides dissect energy coupling of a heterodimeric ABC transporter by multimode allosteric inhibition” (eLife, 2021).

This test deals with TmrAB. The test is described as follows: Conformational epitope test, CP^F anisotropy with TmrAB and SDS. Format: binding, Thermus thermophilus. The method, then: In order to analyze the binding affinity and specificity of CPs to TmrAB, we established a fluorescence polarization assay. Fluorescein-labeled CP^Fs were incubated with increasing concentrations of TmrAB reconstituted in liposomes at a protein-to-lipid ratio of 1:20 (w/w). […] To address whether the CPs recognize a linear or non-linear epitope, we examined the binding of CP^Fs after disrupting the quaternary and tertiary structure of TmrAB complexes by adding anionic detergent SDS.
Figure 2. […] (A, B) Equilibrium binding analysis. Fluorescence anisotropy of CP^Fs (50 nM) was determined at λex/em = 485/520 nm with increasing concentrations of TmrAB which was reconstituted in liposomes. TmrAB concentrations were calculated based on the random (50/50%) orientation in proteoliposomes ([Stefan et al., 2020]). As a control, equal amounts of empty liposomes were added to CP^Fs (dashed lines, open symbols). The difference in fluorescence polarization was normalized to free (0%) and 100% bound CP^F. Mean values ± SD (n = 3) are shown, and data were analyzed by a one-site binding model. […] Streptavidin beads loaded with CP14^B (1 µM) were mixed with purified TmrAB (60 nM) for 1 hr at 4°C. Beads were washed and bound TmrAB was eluted by adding SDS loading buffer for 10 min at 95°C. Amounts of TmrA in input (I), flow-through (FT), wash fraction (W), and eluate (E) were analyzed by SDS-PAGE and immunoblotting (α-His). Beads without CP^B served as negative control (right panel). (D) One-step purification of TmrAB via immobilized CP14^B matrices. Streptavidin-agarose beads were loaded with CP14^B (1 µM) and mixed with DDM-solubilized membranes of E. coli containing TmrAB as described in (C). Bound TmrAB was eluted in SDS loading buffer and analyzed by SDS-PAGE (silver stain). (E) Native mass spectrometry. TmrAB (4 µM) was buffer exchanged to ESI buffer and incubated with a 2-fold molar excess of CP14^F for 10 min on ice. Protein complexes were investigated by ESI-TOF-mass spectrometry. […] Figure 2—source data 1. Source data for Figure 2. Figure 2—figure supplement 1. […] (A) CP^Bs-mediated isolation of solubilized TmrAB. Streptavidin matrices were loaded with CP^Bs (1 µM) and incubated with purified TmrAB (60 nM) for 1 hr at 4°C. Beads without CP^Bs served as control (see Figure 2C). Bound TmrAB complexes were eluted by the addition of SDS loading buffer for 10 min at 95°C. TmrAB in input (I), flow-through (FT), washing fraction (W), and eluate (E) was analyzed by SDS-PAGE and immunoblotting (α-His). (B) Isolation of TmrAB using CP13^B. Streptavidin matrices were loaded with CP13^B (1 µM) and mixed with DDM-solubilized membranes of E. coli expressing TmrAB as described in (A). Bound TmrAB complexes were eluted in SDS loading buffer and analyzed by SDS-PAGE (silver stain). (C) Formation of CP^F-TmrAB complexes. DDM-solubilized TmrAB (1 µM) was incubated with CP12^F, CP13^F, CP14^F (2 µM each), or CP6^F (5 µM) for 10 min on ice. CP^F-TmrAB complexes were analyzed by gel filtration. […] (D) Conformational epitopes. CP^Fs (50 nM) were incubated with TmrAB (0.6 µM for CP6^F and CP13^F, 0.7 µM for CP12^F, 0.5 µM for CP14^F) in the presence of 1% (v/v) SDS. Fluorescence anisotropy was determined at λex/em = 485/520 nm. […] Figure 2—figure supplement 1—source data 1. Source Data for Figure 2—figure supplement 1. [drawing 2] Figure 2—figure supplement 2. Analysis of CP^F-TmrAB complexes by native mass spectrometry.

[1] abbreviates: listed as CPF: CP^F 50 nM alone.
Where [2] appears, read: listed as SDS: CP^F 50 nM + TmrAB + 1% (v/v) SDS.
The mark [3] stands for this setting: listed as TmrAB: CP^F 50 nM + TmrAB (0.6 µM CP6^F/CP13^F, 0.7 µM CP12^F, 0.5 µM CP14^F).

Each structure is given as a SMILES string. Positions of bridges follow the written chain, without caps; N, C: chain ends. Non-standard residues stand in square brackets, D forms with d. Residues, ends and D or L forms follow the SMILES beside them. *: point of attachment. 5FAM = O=C1OC2(c3ccc(O)cc3Oc3cc(O)ccc32)c2ccc(C(=O)*)cc21; βAla = NCCC(=O)O

Turning to `CC[C@H](C)[C@@H]1NC(=O)[C@H]([C@@H](C)O)NC(=O)[C@H](CC(C)C)NC(=O)[C@H](Cc2c[nH]c3ccccc23)NC(=O)[C@H](Cc2ccccc2)NC(=O)[C@H](CC(N)=O)NC(=O)[C@H](CCC(=O)O)NC(=O)[C@H](CC(C)C)NC(=O)[C@H](CS)NC(=O)[C@H](Cc2c[nH]cn2)NC(=O)[C@H](CO)NC(=O)[C@@H](Cc2ccc(O)cc2)NC(=O)CSC[C@@H](C(=O)NCC(=O)N[C@@H](CO)C(=O)NCCC(=O)NCCC(=O)N[C@@H](CCCNC(=N)N)C(=O)N[C@@H](CCCCNC(=O)c2ccc3c(c2)C(=O)OC32c3ccc(O)cc3Oc3cc(O)ccc32)C(N)=O)NC(=O)[C@H](CC(C)C)NC1=O` [CP6] ({CH2CO}-[dY]SHCLENFWLTILCGS[βAla][βAla]RK(5FAM)-NH2; thioether N-14), the Fluorescence anisotropy by setting is: under setting [1], 0.0222; under setting [2], 0.0146; under setting [3], 0.1093.

Turning to `CC(C)C[C@@H]1NC(=O)[C@H](Cc2ccccc2)NC(=O)CNC(=O)[C@H](CO)NC(=O)[C@H](Cc2ccccc2)NC(=O)[C@H](CC(=O)O)NC(=O)[C@@H]2CCCN2C(=O)[C@H]([C@@H](C)O)NC(=O)[C@@H](Cc2ccc(O)cc2)NC(=O)CSC[C@@H](C(=O)NCC(=O)N[C@@H](CO)C(=O)NCCC(=O)NCCC(=O)N[C@@H](CCCNC(=N)N)C(=O)N[C@@H](CCCCNC(=O)c2ccc3c(c2)C(=O)OC32c3ccc(O)cc3Oc3cc(O)ccc32)C(N)=O)NC(=O)[C@H](C)NC(=O)[C@H](CC(N)=O)NC(=O)[C@H](CCCNC(=N)N)NC(=O)[C@H](CC(C)C)NC(=O)[C@H](Cc2ccccc2)NC(=O)[C@H](C)NC1=O` [CP12] ({CH2CO}-[dY]TPDFSGFLAFLRNACGS[βAla][βAla]RK(5FAM)-NH2; thioether N-16), the Fluorescence anisotropy reads like this: under setting [1], 0.0250; under setting [2], 0.0265; under setting [3], 0.1604.

Take `CC[C@H](C)[C@@H]1NC(=O)[C@H](Cc2c[nH]c3ccccc23)NC(=O)[C@H](CC(N)=O)NC(=O)[C@H](C)NC(=O)[C@H](CO)NC(=O)[C@@H]2CCCN2C(=O)[C@H](CC(=O)O)NC(=O)[C@@H](Cc2ccc(O)cc2)NC(=O)CSC[C@@H](C(=O)NCC(=O)N[C@@H](CO)C(=O)NCCC(=O)NCCC(=O)N[C@@H](CCCNC(=N)N)C(=O)N[C@@H](CCCCNC(=O)c2ccc3c(c2)C(=O)OC32c3ccc(O)cc3Oc3cc(O)ccc32)C(N)=O)NC(=O)[C@H]([C@@H](C)O)NC(=O)[C@H](CC(C)C)NC(=O)[C@H](CC(C)C)NC(=O)[C@H](C(C)C)NC(=O)[C@H](CC(C)C)NC1=O` [CP13] ({CH2CO}-[dY]DPSANWILVLLTCGS[βAla][βAla]RK(5FAM)-NH2; thioether N-14; C-terminus assumed): the Fluorescence anisotropy under setting [1] amounted to 0.0252, the Fluorescence anisotropy under setting [2] stood at 0.0310 and the Fluorescence anisotropy under setting [3] is reported as 0.1217.

With `CC(C)[C@@H]1NC(=O)[C@H](Cc2ccccc2)NC(=O)[C@@H]2CCCN2C(=O)[C@H](CC(N)=O)NC(=O)[C@H](Cc2c[nH]c3ccccc23)NC(=O)[C@H](C(C)C)NC(=O)[C@H](Cc2ccc(O)cc2)NC(=O)[C@H](Cc2ccccc2)NC(=O)[C@@H](Cc2ccc(O)cc2)NC(=O)CSC[C@@H](C(=O)NCC(=O)N[C@@H](CO)C(=O)NCCC(=O)NCCC(=O)N[C@@H](CCCNC(=N)N)C(=O)N[C@@H](CCCCNC(=O)c2ccc3c(c2)C(=O)OC32c3ccc(O)cc3Oc3cc(O)ccc32)C(N)=O)NC(=O)[C@H](CCCCN)NC(=O)[C@H](Cc2ccccc2)NC1=O` [CP14] ({CH2CO}-[dY]FYVWNPFVFKCGS[βAla][βAla]RK(5FAM)-NH2; thioether N-12; C-terminus assumed), the Fluorescence anisotropy is listed as 0.0267 under setting [1], 0.0311 under setting [2] and 0.1410 under setting [3].
